Test results taken from US12077508B2, “Inhibitors of the Notch transcriptional activation complex kinase (“NACK”) and methods for use of the same” (UNIVERSITY OF MIAMI, priority 2018, dated 2024).
Entries after “also recorded” stand apart in the source; their conditions may differ. Like-named read-outs stand apart in the source and are kept apart here. Blank lines part the entries; values can stand above or below the compound they belong to.

Columns and labels:
NACK = target: T1, NACK (Mus musculus, UniProt Q571I4); test: Surface plasmon resonance (SPR) binding to GST tagged NACK
T1 sequence (Q571I4 1-1373): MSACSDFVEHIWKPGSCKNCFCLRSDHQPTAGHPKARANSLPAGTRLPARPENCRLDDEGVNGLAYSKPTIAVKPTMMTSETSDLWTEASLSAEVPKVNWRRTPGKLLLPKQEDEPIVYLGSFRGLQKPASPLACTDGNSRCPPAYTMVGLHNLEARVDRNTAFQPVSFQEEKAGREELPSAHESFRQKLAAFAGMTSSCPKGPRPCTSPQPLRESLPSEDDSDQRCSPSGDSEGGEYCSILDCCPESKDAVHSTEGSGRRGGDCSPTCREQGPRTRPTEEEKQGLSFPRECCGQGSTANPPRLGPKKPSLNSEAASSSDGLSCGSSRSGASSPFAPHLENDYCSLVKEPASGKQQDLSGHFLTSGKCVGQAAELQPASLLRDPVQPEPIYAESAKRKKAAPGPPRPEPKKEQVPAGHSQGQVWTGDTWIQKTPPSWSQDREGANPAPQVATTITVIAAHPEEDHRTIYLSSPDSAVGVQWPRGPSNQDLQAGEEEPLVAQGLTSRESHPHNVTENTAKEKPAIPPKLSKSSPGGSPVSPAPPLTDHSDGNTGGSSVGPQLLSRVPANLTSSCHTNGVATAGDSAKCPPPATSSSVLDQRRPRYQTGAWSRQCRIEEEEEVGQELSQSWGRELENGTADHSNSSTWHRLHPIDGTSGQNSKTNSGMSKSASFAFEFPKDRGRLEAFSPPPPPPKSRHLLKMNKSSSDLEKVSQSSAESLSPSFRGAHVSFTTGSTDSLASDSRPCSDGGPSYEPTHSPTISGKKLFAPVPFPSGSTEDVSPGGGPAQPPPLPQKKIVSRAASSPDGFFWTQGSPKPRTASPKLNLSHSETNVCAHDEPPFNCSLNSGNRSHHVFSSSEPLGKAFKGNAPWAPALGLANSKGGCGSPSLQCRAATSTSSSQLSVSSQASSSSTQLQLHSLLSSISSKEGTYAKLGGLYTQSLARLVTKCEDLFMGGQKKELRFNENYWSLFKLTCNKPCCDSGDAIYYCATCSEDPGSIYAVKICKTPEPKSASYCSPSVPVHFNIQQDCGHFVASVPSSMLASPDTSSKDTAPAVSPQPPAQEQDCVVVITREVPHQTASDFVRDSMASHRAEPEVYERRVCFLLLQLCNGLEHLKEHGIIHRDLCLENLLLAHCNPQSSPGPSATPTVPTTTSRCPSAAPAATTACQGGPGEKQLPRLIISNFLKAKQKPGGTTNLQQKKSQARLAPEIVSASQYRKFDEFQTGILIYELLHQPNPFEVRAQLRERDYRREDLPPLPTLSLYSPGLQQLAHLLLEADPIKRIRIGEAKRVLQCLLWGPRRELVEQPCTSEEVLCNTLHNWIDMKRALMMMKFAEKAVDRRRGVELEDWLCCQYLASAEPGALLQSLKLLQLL
Procedure: The interaction between inhibitor Z271-0326 and target NACK was characterized using surface plasmon resonance (SPR). For this purpose, GST tagged NACK was captured by a GST antibody that was previously immobilized onto the surface of the chip through standard amide coupling. The dissociation constants associated with binding of the compounds to NACK was determined using the equilibrium approach, which consists of plotting the equilibrium response (Req) as a function of concentration of the compound and fitting the data to a 1:1 binding model.
A GST capture kit (GE Healthcare) were utilized to covalently immobilize an anti-GST antibody, provided in the kit, to the sensor chip surface (CM5 chip, GE Healthcare) by following the manufacturer's instructions. Capture were performed by injecting GST-NACK (1 μg/μL) over the immobilized anti-GST antibody in Hepes buffer (10 mM Hepes, pH 7.5, 150 mM NaCl, 3 mM EDTA, 0.0005% NP-40) for 7 min at 10 μL/min. A reference flow cell was prepared by capturing GST following the procedure described above. […] Experiments were performed on a Biacore T200 instrument (GE Healthcare) at 25° C. Small molecule inhibitors binding to NACK were performed in 50 mM Tris buffer, pH 7.5, containing 150 mM NaCl, 10 mM MgCl2 and 5% DMSO (running buffer). The SPR signal arising from the sample was corrected for its respective control containing DMSO. Data visualization and analysis was performed using Biacore T200 software (GE Healthcare) and Origin 8.0 (OriginLab).

Notch target genes = test: RT-qPCR of Notch target genes in Notch/NACK-dependent cells; type: cell-based, human; conditions: for down regulation of Notch target genes (q-PCR profile): compared to Z271-0326, FIGS. 13A-13D
Procedure: To assess the effect of NACK inhibitor on Notch target gene transcription, Notch/NACK-dependent cell lines were treated with NACK inhibitors. The cells were also treated with DAPT as a positive control. DMSO treated cells served as a vehicle control for comparison. Gene expression was normalized to HPRT, and TBP served as a negative control to validate normalization.
Reverse transcription and qPCR analysis were performed as described previously (See Weaver et al., Cancer Research 74, 4741-4751 (2014)). Gene expression was normalized to the TATA-binding protein (“TBP”) gene. As a control, hypoxanthine phosphoribosyltransferase 1 (“HPRT”) gene expression was also monitored.

OE33 cell line = test: Colony formation assay in OE33 cells; type: cell-based, human; conditions: for EC50: Homo sapiens, read-out: EC50 colony formation titration assay; for OE33 colony formation: cells treated every other day, FIGS. 5B, 5C
Procedure: (§1) A cell based colony formation assay was used in these experiments. Normal mouse mammary epithelia HC11 cells have little or no endogenous NACK expression, and NACK knockdown had no effect on the growth of HC11 cells (FIG. 5A, lower panel). […] Knockdown of NACK was confirmed by western blot and qPCR (FIGS. 1D and 1E). […] Therefore, compounds that affect OE33 colony formation but not HC11 were desired. In order to screen the compounds, cells were treated with test compounds every other day.
(§2) Colony formation assay was utilized to determine the effect of small molecule inhibitors on cell proliferation. In general, different cell lines (NACK dependent or independent) will be seeded in 6-well plates at a density of 2000 cells per well and allowed to attach overnight. Inhibitor treatment commenced 24 hours post seeding, and the media containing inhibitor was changed every 48 hours thereafter. After 168 hours, colonies were be stained with Crystal Violet (Millipore) and counted.

HC11 cells = test: Colony formation assay in HC11 cells; type: cell-based, mouse; conditions: Notch/NACK independent cell line; FIG. 5B
Procedure: as §1, §2

[1] = target: T2, NACK binding to the Notch transcription complex (Mus musculus, UniProt Q571I4); test: CSL-DNA affinity precipitation (CSL-DAP) assay; type: cell-based; conditions: 293T cells transfected with N1ICD, Maml1, NACK; 2 hours treatment; FIG. 6A
T2 construct: expressed in transfected cells; host or cells: 293T
T2 sequence (Q571I4 1-1373): T1 sequence (Q571I4 1-1373)
Procedure: To determine the specificity of hit-to-lead compounds targeting NACK activity, it was evaluated whether iNACK can block NACK binding to the Notch complex by conducting CSL-DNA affinity precipitation (CSL-DAP) assay. […] In the CSL-DAP assay, 293T cells were co-transfected with N1^ICD, Maml1 and NACK. Transfections were performed using LipoJet transfection reagent (SL100468, SignaGen Laboratories) according to the manufacturer recommended protocol. After two days of transfection, cells were treated with compounds for 2 hours prior collecting the cell lysate. Cell lysates were incubated with DNA streptavidin beads. Proteins that bound to the beads were analyzed by Western blot.
Western blot was performed as described previously (See Weaver et al., Cancer Research 74, 4741-4751 (2014)). Primary antibodies were α-NACK (1:1,000; against aa209-287 of NACK and affinity purified), α-CSL (1:1,000; generated against full-length CSL and affinity purified), α-Maml1 (1:5,000; Cell Signaling Technology), α-cleaved-Notch1 (1:1,000; Cell Signaling Technology).

OE33 spheres = test: Tumor sphere formation assay in OE33; type: cell-based, human; conditions: OE33; FIG. 7A
Procedure: In order to assess the effect of hit to lead compounds on the proliferation of stem cell like population of Notch/NACK dependent cells, the primary tumor spheres were treated with NACK inhibitor and allow the cells to be propagated as secondary cultures. To obtain tumor spheres, cells were cultured in DMEM/F12 with 2% B-27 serum-free supplement (17604-044; Invitrogen), 20 ng/mL epidermal growth factor (EGF; PHG0311L; Invitrogen), and 20 ng/mL basic fibroblastic growth factor (bFGF; PHG0266; Invitrogen) for 14 days. Resulting tumor spheres were examined and counted under the microscope. Furthermore, the tumor spheres were collected for further RT-qPCR analysis to test the effect of hit to lead compounds on the stem like target genes.

- Kd (NACK; SPR, FIG. 4C, read-out: binding constant): ~1500 nM
- Kd (NACK; equilibrium approach, 1:1 binding model, 25° C., FIG. 10A, read-out: KD): 1500 ± 500 nM
SMILES: Nc1ncnc2c1ncn2[C@@H]1O[C@H](COP(=O)(O)OP(=O)(O)NP(=O)(O)O)[C@@H](O)[C@H]1O [AMP-PNP]

SMILES: CCN(CC)C(=O)c1cnn2ccc(C3CCN(S(=O)(=O)c4ccc(NC(=O)OC)cc4)CC3)cc12 [Compound 7C, methyl N-[4-({4-[3-(diethylcarbamoyl)pyrazolo[1,5-a]pyridin-5-yl]piperidinyl}sulfonyl)phenyl]carbamate]
- expression of oncogenes cMYC, CCND1, HES1 (Q-PCR) (Notch target genes; with respect to DMSO and Z271-0326, FIG. 16): downregulate oncogenes cMYC, CCND1, and HES1

SMILES: CC(=O)Nc1ccc(S(=O)(=O)N2CCC(c3ccn4ncc(C(=O)N5CCCC5)c4c3)CC2)cc1 [Compound 7H, N-[4-({4-[3-(pyrrolidine-1-carbonyl)pyrazolo[1,5-a]pyridin-5-yl]piperidin-1-yl}sulfonyl)phenyl]acetamide]
- down regulation of Notch target genes (q-PCR profile) (Notch target genes): performed the best in down regulating Notch target genes, even better than Z271-0326

SMILES: CC(=O)Nc1ccc(S(=O)(=O)N2CCC(c3ccn4ncc(C(=O)N5CCCCC5)c4c3)CC2)cc1 [Compound 7M, N-[4-({4-[3-(piperidine-1-carbonyl)pyrazolo[1,5-a]pyridin-5-yl]piperidin-1-yl}sulfonyl)phenyl]acetamide]
- down regulation of Notch target genes (q-PCR profile) (Notch target genes): can also down regulate Notch target genes, but not as good as compound 7H

- EC50 (OE33 cell line; OE33, OE33 cell line, FIG. 18): 608 nM
SMILES: CC(C)(C)OC(=O)Nc1ccc(S(=O)(=O)N2CCC(c3ccn4ncc(C(=O)N5CCCC5)c4c3)CC2)cc1 [Compound 71B, tert-butyl N-[4-({4-[3-(pyrrolidine-1-carbonyl)pyrazolo[1,5-a]pyridin-5-yl]piperidin-1-yl}sulfonyl)phenyl]carbamate]

- EC50 (OE33 cell line; OE33, OE33 cell line, FIG. 18): 330 nM
SMILES: CC(=O)Nc1ccc(S(=O)(=O)N2CCC(c3ccn4ncc(C(=O)N5CCC5)c4c3)CC2)cc1 [Compound 71C, N-[4-({4-[3-(azetidine-1-carbonyl)pyrazolo[1,5-a]pyridin-5-yl]piperidin-1-yl}sulfonyl)phenyl]acetamide]

SMILES: N#Cc1cccc(NC(=O)N2CCC(c3ccn4ncc(C(=O)N5CCCCC5)c4c3)CC2)c1 [Compound Z270-0137]
- OE33 colony formation (OE33 cell line): effectively inhibit OE33 colony formation
- HC11 colony formation / viability (HC11 cells): but not HC11 cell

SMILES: O=C(c1cnn2ccc(C3CCN(S(=O)(=O)Cc4ccccc4)CC3)cc12)N1CCCCC1 [Compound Z271-0132]
- selectivity between OE33 and HC11 cell lines (OE33 cell line; colony formation): displays no selectivity between OE33 and HC11 cell lines
- inhibition of NACK binding to the Notch transcription complex [1]: dramatically inhibit NACK binding to the NOTCH transcription complex; also recorded: blocks binding of NACK to the ternary complex

- EC50 (OE33 cell line; OE33, estimated, FIG. 6C): 3740 nM
SMILES: CC1CCN(C(=O)c2cnn3ccc(C4CCN(S(=O)(=O)c5ccccc5)CC4)cc23)CC1 [Compound Z271-0191]
- OE33 colony formation (OE33 cell line): effectively inhibit OE33 colony formation
- HC11 colony formation / viability (HC11 cells): but not HC11 cell
- inhibition of NACK binding to the Notch transcription complex [1]: dramatically inhibit NACK binding to the NOTCH transcription complex
- mRNA levels of Notch target genes Hes1 and Notch3 (Notch target genes; OE33, FIG. 6B): decrease the mRNA levels of Notch target genes Hes1 and Notch3
- secondary sphere formation (OE33 spheres): less effective compared to Z271-0326
